Measured values taken from PMC8409943, “Study on mechanism of low bioavailability of black tea theaflavins by using Caco-2 cell monolayer” (Drug Delivery, 2021).
Read-outs that look alike come from different tables or passages of the source.

Key:
[1] = test system: Caco-2 cells; experiment: Cytotoxicity study by CCK-8 method; format: cell-based, Human; conditions: 24 h
Method: Standard stock solutions (1000 μM) of each theaflavin were prepared in 0.1% dimethyl sulfoxide (DMSO) in deionized water, and diluted with fresh DMEM to 100, 200, 300, 400, and 500 µmol/L respectively. Each inhibitor was prepared as instructions. The cytotoxicity of theaflavins and four inhibitors of multidrug resistant associated proteins to Caco-2 cells was examined by CCK-8 method (Song et al., [2014]). Briefly, Caco-2 cells were inoculated onto 96-well microtiter plates at a density of 1 × 10^4 cells per well. After incubation at 37 °C for 24 h, cells were incubated for another 24 h with different concentrations of theaflavins, followed by adding 10 μL CCK-8 solution and 1 h incubation at 37 °C. The absorbance (OD) value was determined at 450 nm using a microplate reader (ELX-800, Bio-Tek Instruments Inc., Winooski, USA). Four inhibitors were used in this study: Vep, inhibitor of P-gp; CsA, inhibitor and substrate of P-gp; MK-571, inhibitor of MRP1, MRP2 and MRP3; FTC, inhibitor of BCRP (Silbermann et al., [1989]; König et al., [1999]; Renes et al., [1999]; Ali et al., [2017]). The cytotoxicity of Vep, CsA, MK-571 or FTC was also determined by CCK-8 assay. […] To determine the effects of inhibitors on the cytotoxicity of theaflavins, cells were incubated with both different theaflavin monomers (100, 200, 300, 400, and 500 μM) and different inhibitors. IC50, the half inhibitory concentration, was calculated from the cell viability. The cell viability was calculated by the following equation: (1) Cell viability (%)=(ODsample− ODblank)/(ODcontrol− ODblank)×100% where ODsample is the absorbance value of cell + sample + complete medium; ODblank, the absorbance value of complete medium; ODcontrol, the absorbance value of cell + complete medium.

[2] = Transepithelial transport of theaflavins across Caco-2 cell monolayers, with or without efflux transporter inhibitors; format: in vitro ADME, Human; conditions: human; for recovery at 2 h, 200 μM: Caco-2, Caco-2 monolayers, after 2 h incubation; for efflux ratio at 2 h, 200 μM / Papp A→B at 2 h, 200 μM / Papp B→A at 2 h, 200 μM: 2 h incubation
Method: (§1) For transport studies, Caco-2 cells were seeded at a density of 3 × 10^5 cells per well in Transwell® inserts (polycarbonate membrane, 24 mm i.d., 0.4 μm pore size, Corning Costar Corp., NY, USA) in 6-well plates (Zhang et al., [2004]). […] The inserts were washed twice with HBSS buffer and equilibrated at 37 °C for 30 min. Standard stock solutions of each theaflavin were diluted to 200 μM with HBSS. For absorptive transport, theaflavins in 1.5 mL HBSS was added into the AP side and 2.6 mL HBSS was added into the BL side of all inserts. For secretory transport, 1.5 mL HBSS and 2.6 mL theaflavins in HBSS were added into AP side and BL side, respectively. Samples were collected from the receiving chamber after 0.5, 1, 2, 3, or 4 h incubation and then were lyophilized at −110 °C in a CoolSafe freeze dryer (LaboGene ApS, Bjarkesvej, Denmark) for HPLC analysis. The recovery rate of theaflavins in the transport was calculated from the above Equation (2).
(§2) Prior to transport inhibition experiment, cells were preincubated for 30 min with 100 μM Vep, 100 μM CsA, 100 μM MK-571, or 10 μM FTC in both sides (Vaidyanathan & Walle, [2001]; Wang et al., [2008]). Then, the absorptive and secretory experiments were performed in the presence of inhibitors as described above. Samples were collected from the receiving chamber after 2 h incubation and then were lyophilized at −110 °C for HPLC analysis.
(§3) The apparent permeability coefficient (Papp, cm/s) was calculated as follows: (3) Papp= dQ/dt×V/(A×C0) where dQ/dt is the variation in concentration on the receiving side over time (μM/s); V, the volume of the solution collected from the receiving chamber (cm^3); A, the area of the membrane (4.67 cm^2); C0, the initial concentration of theaflavins in the donor chamber (μM).
(§4) The efflux ratio was calculated as follows: (4) Efflux ratio= Papp(BL−AP)/Papp(AP−BL) where Papp, apparent permeability coefficient; AP-BL, apical to basolateral transport; BL-AP, basolateral to apical transport.

[3] = test system: Caco-2 cell monolayers; experiment: as above; format: in vitro ADME, Human; conditions: for fold increase in the influx: absorptive transport, with verapamil vs control, 2 h
Method: as §1, §2, §3, §4

[4] = test system: MRP1; experiment: Western blot, protein level of MRP1; format: cell-based, Human; conditions: Caco-2 cells, 200 μM, 2 h, normalized to β-actin, vs control
Method: (§5) Cell lysates were prepared with RIPA lysis buffer. […] Cell protein (50 μg) was loaded onto SDS polyacrylamide gel (5% stacking gel; 8% separating gel) and separated by electrophoresis for 1.5 h at 20 mA. Next, the separated proteins were transferred onto the PVDF membrane in ice bath for 1.5 h at 120 mA, followed by blocking the membrane with 5% nonfat milk in Tris-buffered saline containing 0.1% Tween-20 (TBST) for 1 h at room temperature. After blocking, the blots were incubated overnight at 4 °C with the primary antibody of P-gp, MRP1, MRP2, MRP3, BCRP (1:200) or β-actin (1:40,000), followed by washing with TBST and incubation for 1 h at room temperature with HRP-conjugated goat anti-rabbit (1:3,000). Immunoreactive proteins were visualized by the ECL detection system, band intensity was quantified by Image Lab (Bio-Rad, CA, USA), and the protein contents were normalized to β-actin.

[5] = test system: BCRP; experiment: Western blot, protein level of BCRP; format: cell-based, Human; conditions: Caco-2 cells, 200 μM, 2 h, normalized to β-actin, vs control
Method: as §5

[6] = test system: Caco-2 monolayers; experiment: HPLC-MS/MS identification of metabolites in the absorptive transport of Caco-2 monolayers; format: in vitro ADME, Human; conditions: 200 µM, 2 h; for conjugated metabolites (glucuronidated, sulfated and methylated): AP side or BL side of Caco-2 monolayers; for metabolites identified: absorptive transport, AP side and BL side
Method: TF3G, TF3’G and TFDG were dissolved in DMSO (≤0.5%), and then, diluted with HBSS. Caco-2 cells were incubated with 200 µM TF3G, TF3’G and TFDG at 37 °C for 2 h. Samples collected from both AP side and BL side were measured by HPLC with MS detection, and the metabolites were determined in terms of the standard TF, TF3G, TF3’G, TFDG, and gallic acid (Table S2).

[7] = Stability (recovery rate) of theaflavins in HBSS and DMEM in the absence of cells; conditions: 2 h
Method: Standard stock solutions of each theaflavin were diluted with HBSS and DMEM respectively, obtaining final test solutions of 200 μM. The recovery rate of theaflavins in HBSS and in DMEM, in the absence of cells, was analyzed by HPLC after incubation at 37 °C for 0.5, 1, 2, 3, 4, 8, 12, and 24 hours, respectively. The recovery rate was used to measure the stability and calculated as follows: (2) Recovery rate=Ct/C0× 100% where Ct is the final concentration at different incubation time (μM); C0, the initial concentration (μM).
Theaflavins were characterized by high performance liquid chromatography (HPLC, Agilent 1100VL, Agilent Technologies Inc., CA, USA). Briefly, samples were extracted with 70% methanol, centrifuged at 685 × g for 10 min, and filtered through a 0.45 μm membrane (Nylon 66). The separation was performed by an ODS reversed-phase column (4.6 mm i.d.×250 mm, SB-C18, Agilent Technologies Inc., CA, USA) at a flow rate of 0.7 mL/min. Chromatographic conditions were slightly modified according to China National Standard (GB/T 30483-2013, GAQSIQ, P. R. China, 2013). Samples were eluted with a gradient of solvent A (100 mL water with 9 mL acetonitrile and 2 mL acetic acid) and B (100 mL acetonitrile with 17.8 mL water and 2 mL acetic acid) as follows: 0–5 min, 95% A; 5–10 min, 90% A; 10–20 min, 70% A; 20–25 min, 65% A; 25–30 min, 70% A; 30–35 min, 100% A. Theaflavins were detected using an ultraviolet detector at a wavelength of 278 nm.

[8] = Homo sapiens, Ctrl (no inhibitor)
[9] = apical to basolateral, read-out: recovery of theaflavins in absorptive transport
[10] = basolateral to apical, read-out: recovery of theaflavins in secretory transport
[11] = Caco-2, Papp(BL−AP)/Papp(AP−BL), Ctrl (no inhibitor)
[12] = Caco-2, absorptive transport, 200 μM theaflavin in HBSS, Ctrl (no inhibitor)
[13] = Caco-2, secretory transport, 200 μM theaflavin in HBSS, Ctrl (no inhibitor)
[14] = Caco-2, with 10 μM FTC (BCRP inhibitor), + 10 μM FTC (BCRP inhibitor)
[15] = Caco-2, with 10 μM FTC (BCRP inhibitor), absorptive transport, + 10 μM FTC (BCRP inhibitor)
[16] = Caco-2, with 10 μM FTC (BCRP inhibitor), secretory transport, + 10 μM FTC (BCRP inhibitor)
[17] = Caco-2, with 100 μM CsA (P-gp inhibitor and substrate), + 100 μM CsA (P-gp inhibitor and substrate)
[18] = Caco-2, with 100 μM CsA (P-gp inhibitor and substrate), absorptive transport, + 100 μM CsA (P-gp inhibitor and substrate)
[19] = Caco-2, with 100 μM CsA (P-gp inhibitor and substrate), secretory transport, + 100 μM CsA (P-gp inhibitor and substrate)
[20] = Caco-2, with 100 μM Vep (P-gp inhibitor), + 100 μM Vep (P-gp inhibitor)
[21] = Caco-2, with 100 μM Vep (P-gp inhibitor), absorptive transport, + 100 μM Vep (P-gp inhibitor)
[22] = Caco-2, with 100 μM Vep (P-gp inhibitor), secretory transport, + 100 μM Vep (P-gp inhibitor)

recovery at 2 h, 200 μM [2, 9] [%]	recovery at 2 h, 200 μM [2, 10] [%]	efflux ratio at 2 h, 200 μM [2, 11]	Papp A→B at 2 h, 200 μM [2, 12] [×10⁻⁶ cm/s]	Papp B→A at 2 h, 200 μM [2, 13] [×10⁻⁶ cm/s]	efflux ratio at 2 h, 200 μM [2, 14]	Papp A→B at 2 h, 200 μM [2, 15] [×10⁻⁶ cm/s]	Papp B→A at 2 h, 200 μM [2, 16] [×10⁻⁶ cm/s]	efflux ratio at 2 h, 200 μM [2, 17]	Papp A→B at 2 h, 200 μM [2, 18] [×10⁻⁶ cm/s]	Papp B→A at 2 h, 200 μM [2, 19] [×10⁻⁶ cm/s]	efflux ratio at 2 h, 200 μM [2, 20]	Papp A→B at 2 h, 200 μM [2, 21] [×10⁻⁶ cm/s]	Papp B→A at 2 h, 200 μM [2, 22] [×10⁻⁶ cm/s]	SMILES	IC50 ([1]; + CsA) [µM]	IC50 ([1]; + FTC) [µM]	IC50 ([1]; + MK-571) [µM]	IC50 ([1]; + VEP) [µM]	IC50 [1, 8] [µM]	increase of protein level of MRP1 [4]	further results
31.8	31.6	1.62 ± 0.15	0.044 ± 0.003	0.072 ± 0.003	1.26 ± 0.11	0.054 ± 0.003	0.067 ± 0.002	1.55 ± 0.14	0.054 ± 0.003	0.084 ± 0.003	1.08 ± 0.1	0.055 ± 0.003	0.059 ± 0.002	O=C(O[C@@H]1Cc2c(O)cc(O)cc2O[C@@H]1c1cc(O)c(O)c2c(=O)c(O)cc([C@H]3Oc4cc(O)cc(O)c4C[C@H]3O)cc12)c1cc(O)c(O)c(O)c1 [TF3’G, theaflavin-3’-gallate]	575 ± 84.3	432 ± 30.7	424 ± 35	467 ± 53.3	521 ± 31.9	increased	fold increase in the influx [3]: 1.24 fold; increase of protein level of BCRP [5]: increased; conjugated metabolites (glucuronidated, sulfated and methylated) [6]: not detected; metabolites identified [6]: GA (peak M3, Figure 5(G,H)) and TF; degraded due to the structural instability [7]: 22.1%
32.7	24.7	1.57 ± 0.08	0.364 ± 0.034	0.569 ± 0.049	1.47 ± 0.08	0.375 ± 0.035	0.552 ± 0.048	1.58 ± 0.09	0.4 ± 0.037	0.632 ± 0.055	1.53 ± 0.08	0.357 ± 0.033	0.546 ± 0.047	O=C(O[C@@H]1Cc2c(O)cc(O)cc2O[C@@H]1c1cc(O)c(=O)c2c(O)c(O)cc([C@H]3Oc4cc(O)cc(O)c4C[C@H]3OC(=O)c3cc(O)c(O)c(O)c3)c2c1)c1cc(O)c(O)c(O)c1 [TFDG, theaflavin-3, 3’-digallate]	702 ± 69.4	580 ± 83.9	373 ± 38.8	509 ± 40.6	580 ± 34.7	increased	efflux ratio at 2 h, 200 μM ([2]; Caco-2, with 100 μM MK-571 (MRP1, MRP2, MRP3 inhibitor), + 100 μM MK-571 (MRP1, MRP2, MRP3 inhibitor)): 1.35 ± 0.07; Papp A→B at 2 h, 200 μM ([2]; Caco-2, with 100 μM MK-571 (MRP1, MRP2, MRP3 inhibitor), absorptive transport, + 100 μM MK-571 (MRP1, MRP2, MRP3 inhibitor)): 0.389 ± 0.036 ×10⁻⁶ cm/s; Papp B→A at 2 h, 200 μM ([2]; Caco-2, with 100 μM MK-571 (MRP1, MRP2, MRP3 inhibitor), secretory transport, + 100 μM MK-571 (MRP1, MRP2, MRP3 inhibitor)): 0.524 ± 0.046 ×10⁻⁶ cm/s; transport amount, absorption peak ([3]; apical to basolateral, 200 μM, at 2 h): 2.44 ± 0.23 nmol; transport amount, secretion peak ([3]; basolateral to apical, 200 μM, at 2 h): 3.83 ± 0.33 nmol; increase of protein level of BCRP [5]: increased; conjugated metabolites (glucuronidated, sulfated and methylated) [6]: not detected; metabolites identified [6]: GA, TF, TF3G, and TF3’G
44.2	47.6	1.58 ± 0.3	0.107 ± 0.004	0.168 ± 0.03	1.41 ± 0.27	0.109 ± 0.004	0.153 ± 0.027	1.13 ± 0.22	0.13 ± 0.005	0.146 ± 0.026	0.86 ± 0.16	0.203 ± 0.008	0.173 ± 0.031	O=C(O[C@@H]1Cc2c(O)cc(O)cc2O[C@@H]1c1cc(O)c(=O)c2c(O)c(O)cc([C@H]3Oc4cc(O)cc(O)c4C[C@H]3O)c2c1)c1cc(O)c(O)c(O)c1 [TF3G, theaflavin-3-gallate]	446 ± 30.1	508 ± 15.9	585 ± 78.7	454 ± 13.2	641 ± 7.8	58.36%	fold increase in the influx [3]: 1.90 fold; transport amount, absorptive transport (peak) ([3]; apical to basolateral, 200 μM, at 3 h): 1.30 ± 0.08 nmol; transport amount, secretory transport (peak) ([3]; basolateral to apical, 200 μM, at 3 h): 3.59 ± 0.36 nmol; increase of protein level of BCRP [5]: 115.78%; conjugated metabolites (glucuronidated, sulfated and methylated) [6]: not detected; metabolites identified [6]: GA and TF; degraded due to the structural instability [7]: 24.6%
